# Experimental data published in publication PMC5303205, “Comparative studies on the multi-component pharmacokinetics of Aristolochiae Fructus and honey-fried Aristolochiae Fructus extracts after oral administration in rats” (BMC Complementary and Alternative Medicine, 2017).
# Read-outs that look alike come from different tables or passages of the source.
# Key:
# [1] = Multi-component pharmacokinetics of AAs in rats after oral administration of AF and HAF extracts (HPLC-MS/MS of plasma); parameters: species or system Sprague–Dawley (SD) rats; details: Sprague-Dawley, rat, in vivo
# How it was run: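 Rats were fasted 12 h and given AF or HAF extracts orally in 0.5% CMC–Na at 3.0, 8.0 or 15.0 mg/kg (as AA I), n = 6 per group. Ocular-vein plasma was sampled 0–24 h, ethyl-acetate extracted with internal standard, and analysed by C18 HPLC-MS/MS (positive ESI, MRM). Cmax was observed and other parameters model-fitted.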
# [2] = Stability of AAs in rat plasma (QC samples, HPLC-MS/MS); type: in vitro ADME; details: n = 5; for Short-term stability (RSD/%): fresh rat plasma at room temperature for 24 h before sample preparation; for Post-preparation stability (RSD/%): prepared rat plasma samples at room temperature for 24 h; for Long-term stability (RSD/%): rat plasma stored at –20 °C for 14 days; for Freeze-thaw stability (RSD/%): rat plasma, three freeze-thaw cycles (–20 °C 24 h, thawed at room temperature)
# How it was run: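 Rat plasma QC samples tested over three freeze-thaw cycles (–20 °C 24 h, thawed at room temperature), 14 days at –20 °C, 24 h at room temperature before preparation, and 24 h post-preparation, by HPLC-MS/MS. Mean concentrations compared with freshly prepared samples; bias within ±15% accepted.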
# [3] = 3 mg/kg, AF extract, low dose (3.0 mg/kg as AA I), analyte dose mg/kg: AA I 3.0, AA II 0.21, AA C 1.42, AA D 1.60, 7-OH AA I 2.33, n = 6
# [4] = 3 mg/kg, HAF extract, low dose (3.0 mg/kg as AA I), analyte dose mg/kg: AA I 3.0, AA II 0.26, AA C 1.53, AA D 1.51, 7-OH AA I 2.48, n = 6
# [5] = 8 mg/kg, AF extract, mid dose (8.0 mg/kg as AA I), analyte dose mg/kg: AA I 8.0, AA II 0.56, AA C 3.78, AA D 4.26, 7-OH AA I 6.22, n = 6
# [6] = 8 mg/kg, HAF extract, mid dose (8.0 mg/kg as AA I), analyte dose mg/kg: AA I 8.0, AA II 0.69, AA C 4.09, AA D 4.03, 7-OH AA I 6.62, n = 6
# [7] = 15 mg/kg, AF extract, high dose (15.0 mg/kg as AA I), analyte dose mg/kg: AA I 15.0, AA II 1.05, AA C 7.09, AA D 8.00, 7-OH AA I 11.66, n = 6
# [8] = 15 mg/kg, HAF extract, high dose (15.0 mg/kg as AA I), analyte dose mg/kg: AA I 15.0, AA II 1.29, AA C 7.66, AA D 7.56, 7-OH AA I 12.41, n = 6
# [9] = high QC conc ng/mL: AA I 1830, AA II 3200, AA C 2980, AA D 3680, 7-OH AA I 3280
# [10] = low QC conc ng/mL: AA I 1.83, AA II 8.00, AA C 186.3, AA D 36.8, 7-OH AA I 82.0
# [11] = middle QC conc ng/mL: AA I 457.5, AA II 400, AA C 372.5, AA D 460, 7-OH AA I 410
structure (smiles),measurement,setting,value
O=C(O)c1cc2c(c3c1c([N+](=O)[O-])cc1ccccc13)OCO2 [AA II],AUC(0-inf),[1]; [3],3960 ± 1000 ng·h/mL
same,Cmax,[1]; [3],590 ± 191 ng/mL
same,Tmax,[1]; [3],1.03 ± 0.18 h
same,CL/F,"[1]; 3 mg/kg, AF extract, low dose (3.0 mg/kg as AA I), analyte dose mg/kg: AA I 3.0, AA II 0.21, AA C 1.42, AA D 1.60, 7-OH AA I 2.33, n = 6, read-out: CLz/F (converted)",1.17 mL/min/kg
same,Vd/F,"[1]; 3 mg/kg, AF extract, low dose (3.0 mg/kg as AA I), analyte dose mg/kg: AA I 3.0, AA II 0.21, AA C 1.42, AA D 1.60, 7-OH AA I 2.33, n = 6, read-out: Vz/F",0.49 ± 0.06 L/kg
same,half-life,"[1]; 3 mg/kg, AF extract, low dose (3.0 mg/kg as AA I), analyte dose mg/kg: AA I 3.0, AA II 0.21, AA C 1.42, AA D 1.60, 7-OH AA I 2.33, n = 6, read-out: t 1/2z (converted)",4.98 ± 0.55 h
same,AUC(0-inf),[1]; [4],2720 ± 795 ng·h/mL
same,Cmax,[1]; [4],293 ± 55.2 ng/mL
same,Tmax,[1]; [4],0.81 ± 0.14 h
same,CL/F,"[1]; 3 mg/kg, HAF extract, low dose (3.0 mg/kg as AA I), analyte dose mg/kg: AA I 3.0, AA II 0.26, AA C 1.53, AA D 1.51, 7-OH AA I 2.48, n = 6, read-out: CLz/F (converted)",1.33 mL/min/kg
same,Vd/F,"[1]; 3 mg/kg, HAF extract, low dose (3.0 mg/kg as AA I), analyte dose mg/kg: AA I 3.0, AA II 0.26, AA C 1.53, AA D 1.51, 7-OH AA I 2.48, n = 6, read-out: Vz/F",0.55 ± 0.07 L/kg
same,half-life,"[1]; 3 mg/kg, HAF extract, low dose (3.0 mg/kg as AA I), analyte dose mg/kg: AA I 3.0, AA II 0.26, AA C 1.53, AA D 1.51, 7-OH AA I 2.48, n = 6, read-out: t 1/2z (converted)",4.94 ± 0.61 h
same,AUC(0-inf),[1]; [5],7820 ± 1980 ng·h/mL
same,Cmax,[1]; [5],1140 ± 193 ng/mL
same,Tmax,[1]; [5],1.33 ± 0.21 h
same,CL/F,"[1]; 8 mg/kg, AF extract, mid dose (8.0 mg/kg as AA I), analyte dose mg/kg: AA I 8.0, AA II 0.56, AA C 3.78, AA D 4.26, 7-OH AA I 6.22, n = 6, read-out: CLz/F (converted)",1.17 mL/min/kg
same,Vd/F,"[1]; 8 mg/kg, AF extract, mid dose (8.0 mg/kg as AA I), analyte dose mg/kg: AA I 8.0, AA II 0.56, AA C 3.78, AA D 4.26, 7-OH AA I 6.22, n = 6, read-out: Vz/F",0.48 ± 0.05 L/kg
same,half-life,"[1]; 8 mg/kg, AF extract, mid dose (8.0 mg/kg as AA I), analyte dose mg/kg: AA I 8.0, AA II 0.56, AA C 3.78, AA D 4.26, 7-OH AA I 6.22, n = 6, read-out: t 1/2z (converted)",5.06 ± 0.49 h
same,AUC(0-inf),[1]; [6],3870 ± 1200 ng·h/mL
same,Cmax,[1]; [6],412 ± 104 ng/mL
same,Tmax,[1]; [6],0.81 ± 0.16 h
same,CL/F,"[1]; 8 mg/kg, HAF extract, mid dose (8.0 mg/kg as AA I), analyte dose mg/kg: AA I 8.0, AA II 0.69, AA C 4.09, AA D 4.03, 7-OH AA I 6.62, n = 6, read-out: CLz/F (converted)",1.17 mL/min/kg
same,Vd/F,"[1]; 8 mg/kg, HAF extract, mid dose (8.0 mg/kg as AA I), analyte dose mg/kg: AA I 8.0, AA II 0.69, AA C 4.09, AA D 4.03, 7-OH AA I 6.62, n = 6, read-out: Vz/F",0.49 ± 0.06 L/kg
same,half-life,"[1]; 8 mg/kg, HAF extract, mid dose (8.0 mg/kg as AA I), analyte dose mg/kg: AA I 8.0, AA II 0.69, AA C 4.09, AA D 4.03, 7-OH AA I 6.62, n = 6, read-out: t 1/2z (converted)",4.95 ± 0.53 h
same,AUC(0-inf),[1]; [7],12700 ± 2960 ng·h/mL
same,Cmax,[1]; [7],1520 ± 200 ng/mL
same,Tmax,[1]; [7],1.83 ± 0.29 h
same,CL/F,"[1]; 15 mg/kg, AF extract, high dose (15.0 mg/kg as AA I), analyte dose mg/kg: AA I 15.0, AA II 1.05, AA C 7.09, AA D 8.00, 7-OH AA I 11.66, n = 6, read-out: CLz/F (converted)",1.83 mL/min/kg
same,Vd/F,"[1]; 15 mg/kg, AF extract, high dose (15.0 mg/kg as AA I), analyte dose mg/kg: AA I 15.0, AA II 1.05, AA C 7.09, AA D 8.00, 7-OH AA I 11.66, n = 6, read-out: Vz/F",0.82 ± 0.09 L/kg
same,half-life,"[1]; 15 mg/kg, AF extract, high dose (15.0 mg/kg as AA I), analyte dose mg/kg: AA I 15.0, AA II 1.05, AA C 7.09, AA D 8.00, 7-OH AA I 11.66, n = 6, read-out: t 1/2z (converted)",5.16 ± 0.52 h
same,AUC(0-inf),[1]; [8],5630 ± 1690 ng·h/mL
same,Cmax,[1]; [8],528 ± 62.4 ng/mL
same,Tmax,[1]; [8],0.93 ± 0.19 h
same,CL/F,"[1]; 15 mg/kg, HAF extract, high dose (15.0 mg/kg as AA I), analyte dose mg/kg: AA I 15.0, AA II 1.29, AA C 7.66, AA D 7.56, 7-OH AA I 12.41, n = 6, read-out: CLz/F (converted)",1.5 mL/min/kg
same,Vd/F,"[1]; 15 mg/kg, HAF extract, high dose (15.0 mg/kg as AA I), analyte dose mg/kg: AA I 15.0, AA II 1.29, AA C 7.66, AA D 7.56, 7-OH AA I 12.41, n = 6, read-out: Vz/F",0.72 ± 0.08 L/kg
same,half-life,"[1]; 15 mg/kg, HAF extract, high dose (15.0 mg/kg as AA I), analyte dose mg/kg: AA I 15.0, AA II 1.29, AA C 7.66, AA D 7.56, 7-OH AA I 12.41, n = 6, read-out: t 1/2z (converted)",5.39 ± 0.48 h
same,Short-term stability (RSD/%),[2]; [9],9.3%
same,Short-term stability (RSD/%),[2]; [10],5.0%
same,Short-term stability (RSD/%),[2]; [11],5.5%
same,Post-preparation stability (RSD/%),[2]; [9],6.5%
same,Post-preparation stability (RSD/%),[2]; [10],4.4%
same,Post-preparation stability (RSD/%),[2]; [11],3.6%
same,Long-term stability (RSD/%),[2]; [9],7.3%
same,Long-term stability (RSD/%),[2]; [10],1.2%
same,Long-term stability (RSD/%),[2]; [11],8.2%
same,Freeze-thaw stability (RSD/%),[2]; [9],14.3%
same,Freeze-thaw stability (RSD/%),[2]; [10],1.3%
same,Freeze-thaw stability (RSD/%),[2]; [11],10.2%
